Measurements taken from patent US11492335B2, “Aryl or heteroaryl triazolone derivatives or salts thereof, or pharmaceutical compositions comprising the same” (YUHAN CORPORATION, priority 2018, dated 2022).
Structures can show the parent of a compound that is named as a salt. Where two headings read alike, the source gives them in different places.

What was measured:
Assay type in all cases: biochemical
[1] = biological target: T1, recombinant human VAP-1 (Homo sapiens, UniProt Q16853); assay: Activity on recombinant human VAP-1, Amplex Red HRP-coupled hydrogen peroxide assay, benzylamine substrate; conditions: recombinant human VAP-1, benzylamine substrate, read-out: Inhibitory Activity (IC50, nM) human VAP-1
T1 construct: purchased R&D systems
T1 sequence (Q16853 1-763): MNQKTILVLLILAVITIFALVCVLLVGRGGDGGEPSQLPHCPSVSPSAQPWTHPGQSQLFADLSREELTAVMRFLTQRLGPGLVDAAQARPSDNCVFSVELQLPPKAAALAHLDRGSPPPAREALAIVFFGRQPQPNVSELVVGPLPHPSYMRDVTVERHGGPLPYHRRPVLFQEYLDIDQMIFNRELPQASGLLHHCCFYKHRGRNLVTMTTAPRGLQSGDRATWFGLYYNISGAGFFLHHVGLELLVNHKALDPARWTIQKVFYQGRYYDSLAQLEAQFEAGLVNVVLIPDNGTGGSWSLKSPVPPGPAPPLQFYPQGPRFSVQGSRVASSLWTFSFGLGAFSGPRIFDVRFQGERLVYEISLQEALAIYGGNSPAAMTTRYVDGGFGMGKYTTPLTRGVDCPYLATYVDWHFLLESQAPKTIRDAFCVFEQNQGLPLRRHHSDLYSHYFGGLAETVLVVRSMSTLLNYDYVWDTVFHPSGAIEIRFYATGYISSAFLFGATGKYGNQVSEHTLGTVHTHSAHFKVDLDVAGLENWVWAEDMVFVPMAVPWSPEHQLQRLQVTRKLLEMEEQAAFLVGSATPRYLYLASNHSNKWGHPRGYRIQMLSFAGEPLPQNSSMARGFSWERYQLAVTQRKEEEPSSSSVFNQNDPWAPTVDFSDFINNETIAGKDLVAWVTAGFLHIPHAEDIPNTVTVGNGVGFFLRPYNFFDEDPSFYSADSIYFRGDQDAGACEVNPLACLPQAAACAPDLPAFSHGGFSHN
Description: (§1) The compounds according to the present technology were evaluated in terms of activity on recombinant human VAP-1 (R&D systems) by measuring the level of hydrogen peroxide in horseradish peroxidase (HRP)-coupled reaction using Amplex Red Hydrogen Peroxide Assay Kit (Molecular Probes, Invitrogen, USA). The experiment was carried out at room temperature using benzylamine as a substrate. In the HRP-coupled reaction, hydrogen peroxide oxidation of 10-acetyl-3,7-dihydroxyphenoxazine (Amplex Red reagent) produces resorufin, which is a highly fluorescent compound. Briefly, the test compound was dissolved in dimethyl sulfoxide (DMSO) at a concentration of 20 mM. The dose-response assessment was made by 1:3 serial dilution in DMSO, thereby creating an 8 point curve. The concentration of the upper part was controlled according to the efficacy of the compounds, followed by dilution with a reaction buffer solution to obtain a final DMSO concentration less than 1%. To each well of a 96 black well plate, human VAP-1 purified in 50 mM sodium phosphate buffer solution (pH7.4) was added. The test compounds dissolved in DMSO were incubated with the human VAP-1 enzymes at 37° C. for 30 minutes. After 30-minute incubation, each well is added with a reaction mixture containing 200 uM Amplex Red reagent prepared from 50 mM sodium phosphate buffer solution (pH 7.4), 1 mM benzylamine, and 1 U/mL HRP. Fluorescence intensity was measured at several time points during 1-2 hours using a microplate reader (Flexstation3, Molecular Devices) under the wavelength condition exciting at 544 nm and reading the emission at 590 nm. The inhibitory effect of the compounds was measured as a decrease (%) in the signal rate as compared to the control group without any inhibitor (only diluted DMSO). Data was fixed to a logistic model with four variables and IC50 value was calculated using GraphPad Prism program.

[2] = biological target: T2, recombinant human MAO-A (monoamine oxidase-A) (Homo sapiens, UniProt P21397); assay: Activity on recombinant human MAO-A, Amplex Red method, 0.5 mM tyramine substrate; conditions: read-out: Inhibitory Activity (IC50, nM) MAO-A
T2 construct: purchased Sigma-Aldrich
T2 sequence (P21397 1-527): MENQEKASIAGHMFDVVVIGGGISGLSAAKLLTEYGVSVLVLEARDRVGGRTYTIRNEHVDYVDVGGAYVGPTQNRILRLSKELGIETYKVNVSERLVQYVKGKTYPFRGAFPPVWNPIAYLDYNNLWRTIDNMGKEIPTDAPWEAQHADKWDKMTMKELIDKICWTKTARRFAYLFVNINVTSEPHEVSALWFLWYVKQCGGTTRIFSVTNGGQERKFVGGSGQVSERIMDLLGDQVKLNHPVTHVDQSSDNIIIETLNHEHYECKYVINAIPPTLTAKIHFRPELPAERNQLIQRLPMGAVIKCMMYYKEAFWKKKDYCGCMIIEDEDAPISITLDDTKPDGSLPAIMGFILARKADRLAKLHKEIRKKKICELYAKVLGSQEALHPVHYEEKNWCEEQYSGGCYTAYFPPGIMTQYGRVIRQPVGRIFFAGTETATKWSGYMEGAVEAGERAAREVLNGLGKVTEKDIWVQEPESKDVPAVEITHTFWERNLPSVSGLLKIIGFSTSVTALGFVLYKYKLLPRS
Description: as §1
(§2) In addition, the compounds according to the present technology were evaluated in terms of activity on a recombinant human MAO-A (monoamine oxidase-A, Sigma-Aldrich) and a recombinant human MAO-B (monoamine oxidase-B, Sigma-Aldrich) by using as substrates, 0.5 mM tyramine and 1 mM benzylamine, respectively, with a method similar to the activity evaluation method for recombinant human VAP-1. The compounds according to the present technology were also evaluated in terms of activity on a recombinant human DAO (diamine oxidase, R&D systems) by using as a substrate 1 mM putrescine with a method similar to the activity evaluation method for recombinant human VAP-1.

[3] = biological target: T3, recombinant human MAO-B (monoamine oxidase-B) (Homo sapiens, UniProt P27338); assay: Activity on recombinant human MAO-B, Amplex Red method, 1 mM benzylamine substrate; conditions: for IC50: read-out: Inhibitory Activity (IC50, nM) MAO-B
T3 construct: purchased Sigma-Aldrich
T3 sequence (P27338 1-520): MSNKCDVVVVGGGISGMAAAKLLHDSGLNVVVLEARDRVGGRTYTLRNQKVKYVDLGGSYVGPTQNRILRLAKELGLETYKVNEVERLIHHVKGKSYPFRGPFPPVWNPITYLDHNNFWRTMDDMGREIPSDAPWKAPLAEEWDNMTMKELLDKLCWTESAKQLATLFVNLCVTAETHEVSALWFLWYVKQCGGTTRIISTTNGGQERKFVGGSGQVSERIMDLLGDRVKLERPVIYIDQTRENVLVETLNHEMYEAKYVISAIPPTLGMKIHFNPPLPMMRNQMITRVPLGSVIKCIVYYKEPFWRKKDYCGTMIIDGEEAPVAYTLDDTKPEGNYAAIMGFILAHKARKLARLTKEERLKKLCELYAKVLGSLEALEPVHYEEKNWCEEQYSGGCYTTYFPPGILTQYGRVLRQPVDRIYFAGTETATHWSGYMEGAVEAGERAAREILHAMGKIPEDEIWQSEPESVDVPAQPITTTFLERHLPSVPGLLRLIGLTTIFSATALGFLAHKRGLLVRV
Description: as §1, §2

[4] = biological target: T4, recombinant human DAO (diamine oxidase) (Homo sapiens, UniProt P19801); assay: Activity on recombinant human DAO, Amplex Red method, 1 mM putrescine substrate; conditions: recombinant human DAO; for IC50: read-out: Inhibitory Activity (IC50, nM) DAO
T4 construct: purchased R&D systems
T4 sequence (P19801 20-751): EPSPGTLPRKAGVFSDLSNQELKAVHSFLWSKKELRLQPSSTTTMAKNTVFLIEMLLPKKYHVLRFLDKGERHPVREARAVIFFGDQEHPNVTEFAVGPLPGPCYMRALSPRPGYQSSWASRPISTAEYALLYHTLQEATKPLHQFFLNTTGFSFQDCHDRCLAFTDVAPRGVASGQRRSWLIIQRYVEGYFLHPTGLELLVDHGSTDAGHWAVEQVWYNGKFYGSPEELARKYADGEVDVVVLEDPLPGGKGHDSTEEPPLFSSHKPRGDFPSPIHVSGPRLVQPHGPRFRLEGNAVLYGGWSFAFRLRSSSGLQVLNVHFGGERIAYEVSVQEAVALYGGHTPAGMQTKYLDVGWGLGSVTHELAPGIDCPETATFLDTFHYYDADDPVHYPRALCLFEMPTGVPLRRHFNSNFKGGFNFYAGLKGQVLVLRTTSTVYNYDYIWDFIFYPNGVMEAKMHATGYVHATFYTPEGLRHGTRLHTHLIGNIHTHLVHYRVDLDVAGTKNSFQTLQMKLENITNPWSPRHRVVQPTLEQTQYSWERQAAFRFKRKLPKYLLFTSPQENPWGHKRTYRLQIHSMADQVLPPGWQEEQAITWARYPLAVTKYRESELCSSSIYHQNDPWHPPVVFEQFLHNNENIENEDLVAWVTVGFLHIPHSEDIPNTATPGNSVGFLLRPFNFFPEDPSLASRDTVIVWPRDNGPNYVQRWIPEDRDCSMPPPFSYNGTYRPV
Description: as §1, §2

[5] = 1 mM putrescine, * = between 10 and 100 nM, ** = between 300 and 1000 nM

| SMILES | IC50 [1] [nM] | IC50 ([2]; 0.5 mM tyramine substrate) [nM] | IC50 ([3]; 1 mM benzylamine substrate) [nM] | IC50 ([4]; 1 mM putrescine substrate) [nM] | IC50 ([1]; 30 min preincubation at 37° C.) [nM] | IC50 ([2]; 0.5 mM tyramine) [nM] | IC50 ([3]; 1 mM benzylamine) [nM] | IC50 [4, 5] [nM] | Inhibitory Activity (IC50, nM) MAO-B ([3]; 1 mM benzylamine) | Inhibitory Activity (IC50, nM) DAO [4, 5] |
| --- | --- | --- | --- | --- | --- | --- | --- | --- | --- | --- |
| NC/C(=C\F)Cn1ncn(-c2cnc(-c3ccc4sc(N)nc4c3)cn2)c1=O [Example 224, 4-[5-(2-amino-1,3-benzothiazol-5-yl)pyrazin-2-yl]-2-[(2E)-2-(aminomethyl)-3-fluoroprop-2-en-1-yl]-2,4-dihydro-3H-1,2,4-triazol-3-one] | 1.3 | > 100000 | 49 | < 100 |  |  |  |  |  |  |
| COc1ccc(-c2ccc(C)c(-n3cnn(C/C(=C/F)CN)c3=O)n2)cn1 [Example 212, 2-[(2E)-2-(aminomethyl)-3-fluoroprop-2-en-1-yl]-4-(6′-methoxy-5-methyl-2,3′-bipyridin-6-yl)-2,4-dihydro-3H-1,2,4-triazol-3-one hydrochloride] | 45 | > 100000 | > 10000 | 2200 |  |  |  |  |  |  |
| NC/C(=C\F)Cn1ncn(-c2cccc(C#Cc3cnc4c(c3)OCC(=O)N4)n2)c1=O [Example 255, 7-[2-[6-[1-[(E)-2-(aminomethyl)-3-fluoro-allyl]-5-oxo-1,2,4-triazol-4-yl]-2-pyridyl]ethynyl]-4H-pyrido[3,2-b][1,4]oxazin-3-one] | 0.2 | > 100000 | 6100 | 20 |  |  |  |  |  |  |
| NC/C(=C\F)Cn1ncn(-c2cccc(-c3ccc(C4CCOCC4)cc3)c2)c1=O [Example 73, 2-[(2E)-2-(aminomethyl)-3-fluoroprop-2-en-1-yl]-4-[4′-(tetrahydro-2H-pyran-4-yl)biphenyl-3-yl]-2,4-dihydro-3H-1,2,4-triazol-3-one hydrochloride] |  |  |  |  | 0.98 | > 100000 | > 10000 | 67 |  |  |
| Cc1cc(-n2cnn(C/C(=C/F)CN)c2=O)cnc1-c1ccc2sc(N)nc2c1 [Example 118, 4-[6-(2-amino-1,3-benzothiazol-5-yl)-5-methylpyridin-3-yl]-2-[(2E)-2-(aminomethyl)-3-fluoroprop-2-en-1-yl]-2,4-dihydro-3H-1,2,4-triazol-3-one hydrochloride] |  |  |  |  | 0.34 | > 100000 | 3040 | 1.7 |  |  |
| NC/C(=C\F)Cn1ncn(-c2cccc(-c3cccnc3)c2)c1=O [Example 82, 2-[(2E)-2-(aminomethyl)-3-fluoroprop-2-en-1-yl]-4-[3-(pyridin-3-yl)phenyl]-2,4-dihydro-3H-1,2,4-triazol-3-one hydrochloride] |  |  |  |  | 0.8 | > 100000 | 18000 | < 100 |  |  |
| CS(=O)(=O)c1ccc(-c2ccc(-n3cnn(C/C(=C\F)CN)c3=O)nc2)cc1 [Example 129, 2-[(2Z)-2-(aminomethyl)-3-fluoroprop-2-en-1-yl]-4-{5-[4-(methylsulfonyl)phenyl]pyridin-2-yl}-2,4-dihydro-3H-1,2,4-triazol-3-one hydrochloride] |  |  |  |  | 0.45 | > 100000 | 10 | < 1 |  |  |
| Cc1c(-c2ccc3c(c2)OCCO3)cccc1-n1cnn(C/C(=C/F)CN)c1=O [Example 112, 2-[(2E)-2-(aminomethyl)-3-fluoroprop-2-en-1-yl]-4-[3-(2,3-dihydro-1,4-benzodioxin-6-yl)-2-methylphenyl]-2,4-dihydro-3H-1,2,4-triazol-3-one] |  |  |  |  | 2.5 |  |  |  | no inhibitory | no inhibitory |
| NC/C(=C/F)Cn1ncn(-c2cc(F)c(Br)c(F)c2)c1=O [Example 19, 2-[(2Z)-2-(aminomethyl)-3-fluoroprop-2-en-1-yl]-4-(4-bromo-3,5-difluorophenyl)-2,4-dihydro-3H-1,2,4-triazol-3-one] |  |  |  |  | 3.3 |  | 4.4 | 13 |  |  |
